target: KAT2A (Homo sapiens, UniProt Q92830); assay: KAT2A degradation, Western Blot (Jess), MOLM-13 cells; type: cell-based; parameters: degrader, Western blot; settings: MOLM-13 cells, KAT2A, 24 h, Western Blot, vs DMSO; read-out: KAT2A MOLM-13 DC50
In short: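 MOLM-13 cells in RPMI 1640/20% FBS were treated with compound for 24 h at 37 °C. RIPA lysates (4 μg) were run on a capillary Western (Jess) with anti-KAT2A antibody and chemiluminescent detection. DC50 comes from percent protein reduction versus DMSO control.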

Chain of KAT2A (Q92830 whole entry): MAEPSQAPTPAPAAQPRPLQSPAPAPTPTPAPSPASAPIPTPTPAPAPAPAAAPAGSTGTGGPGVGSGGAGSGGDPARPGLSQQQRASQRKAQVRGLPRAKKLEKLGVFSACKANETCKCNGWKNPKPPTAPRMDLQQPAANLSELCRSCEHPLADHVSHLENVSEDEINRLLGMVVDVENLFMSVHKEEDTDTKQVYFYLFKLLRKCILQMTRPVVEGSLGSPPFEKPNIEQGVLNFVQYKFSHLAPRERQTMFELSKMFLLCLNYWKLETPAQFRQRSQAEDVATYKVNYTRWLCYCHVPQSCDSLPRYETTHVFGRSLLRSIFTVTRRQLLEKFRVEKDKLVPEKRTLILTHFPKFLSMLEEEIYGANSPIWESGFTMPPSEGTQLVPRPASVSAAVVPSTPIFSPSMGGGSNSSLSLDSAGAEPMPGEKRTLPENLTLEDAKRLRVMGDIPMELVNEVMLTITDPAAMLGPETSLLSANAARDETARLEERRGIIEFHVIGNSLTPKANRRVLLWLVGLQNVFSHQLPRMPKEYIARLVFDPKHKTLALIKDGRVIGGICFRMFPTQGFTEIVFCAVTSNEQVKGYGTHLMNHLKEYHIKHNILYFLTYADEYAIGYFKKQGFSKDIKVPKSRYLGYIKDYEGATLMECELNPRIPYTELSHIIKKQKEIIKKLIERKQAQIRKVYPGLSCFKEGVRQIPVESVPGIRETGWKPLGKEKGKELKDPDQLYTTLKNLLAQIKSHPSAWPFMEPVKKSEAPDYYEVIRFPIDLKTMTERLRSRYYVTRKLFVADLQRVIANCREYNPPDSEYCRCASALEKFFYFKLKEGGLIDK

DC50 | Compound
< 1 nM | CN1C[C@H](Nc2cnn(C)c(=O)c2Br)C[C@H](c2ccc(C(=O)NCCCCCCCCCC(=O)Nc3ccc4c(c3)CN(C3CCC(=O)NC3=O)C4=O)cc2)C1 (stereo partly drawn) [Compound 3]
< 1 nM | CN1C[C@H](Nc2cnn(C)c(=O)c2Br)C[C@H](c2ccc(C(=O)N3CCC4(CC3)CCN(c3cccc(C5CCC(=O)NC5=O)c3)CC4)cc2)C1 (stereo partly drawn) [Compound 135]
< 1 nM | CN1C[C@H](Nc2cnn(C)c(=O)c2Br)C[C@H](c2ccc(C(=O)N(C)Cc3ccc(COc4cccc5c4C(=O)N(C4CCC(=O)NC4=O)C5=O)cc3)cc2)C1 (stereo partly drawn) [Compound 55]
< 1 nM | CN1C[C@H](Nc2cnn(C)c(=O)c2Br)C[C@H](c2ccc(CN3CCC4(CC3)CCN(c3ccc(C5CCC(=O)NC5=O)cc3)CC4)cc2)C1 (stereo partly drawn) [Compound 88]
1 to 30 nM | CN1C[C@H](Nc2cnn(C)c(=O)c2Br)C[C@H](c2ccc(CN3CCC(c4ccc(OC5CCC(=O)NC5=O)cc4)CC3)cc2)C1 (stereo partly drawn) [Compound 173]
1 to 30 nM | Cc1ccc(N2CCC3(CCN(Cc4ccc([C@H]5C[C@@H](Nc6cnn(C)c(=O)c6Br)CN(C)C5)cc4)CC3)CC2)cc1C1CCC(=O)NC1=O (stereo partly drawn) [Compound 178]
1 to 30 nM | CN1C[C@H](Nc2cnn(C)c(=O)c2Br)C[C@H](c2ccc(C(=O)NC3CCN(c4cccc5c4C(=O)N(C4CCC(=O)NC4=O)C5=O)CC3)cc2)C1 (stereo partly drawn) [Compound 15]
1 to 30 nM | CN1C[C@H](Nc2cnn(C)c(=O)c2Br)C[C@H](c2ccc(C(=O)N(C)c3ccc(Oc4cccc5c4C(=O)N(C4CCC(=O)NC4=O)C5=O)cc3)cc2)C1 (stereo partly drawn) [Compound 1]
1 to 30 nM | CN1C[C@H](Nc2cnn(C)c(=O)c2Br)C[C@H](c2ccc(C(=O)N3CC4(C3)CN(c3ccc(C5CCC(=O)NC5=O)cc3)C4)cc2)C1 (stereo partly drawn) [Compound 147]
1 to 30 nM | CN1C[C@H](Nc2cnn(C)c(=O)c2Br)C[C@H](c2ccc(C(=O)N3CC(Oc4ccc(C5CCC(=O)NC5=O)cc4)C3)cc2)C1 (stereo partly drawn) [Compound 183]
> 30 nM | CN1C[C@H](Nc2cnn(C)c(=O)c2Cl)C[C@H](c2ccc(CN3CCC(c4cccc5c4CN(C4CCC(=O)NC4=O)C5=O)CC3)cc2)C1 (stereo partly drawn) [Compound 94]
1 to 30 nM | CN1C[C@H](Nc2cnn(C)c(=O)c2Br)C[C@H](c2ccc(C(=O)N3CCN(c4cccc5c4n(C)c(=O)n5C4CCC(=O)NC4=O)CC3)cc2)C1 (stereo partly drawn) [Compound 142]
1 to 30 nM | CN1C[C@H](Nc2ccn(C)c(=O)c2Cl)C[C@H](c2ccc(COc3ccc4c(c3)C(=O)N(C3CCC(=O)NC3=O)C4=O)cc2)C1 (stereo partly drawn) [Compound 105]
< 1 nM | CN1C[C@H](Nc2cnn(C)c(=O)c2Br)C[C@H](c2ccc(C(=O)N3CCN(c4ccc(F)c(C5CCC(=O)NC5=O)c4)CC3)cc2)C1 (stereo partly drawn) [Compound 143]
< 1 nM | CN1C[C@H](Nc2cnn(C)c(=O)c2Br)C[C@H](c2ccc(CN3CCN(Oc4cccc5c4CN(C4CCC(=O)NC4=O)C5=O)CC3)cc2)C1 (stereo partly drawn) [Compound 99]
< 1 nM | CN1C[C@H](Nc2cnn(C)c(=O)c2Br)C[C@H](c2ccc(C(=O)N3CCN(Cc4ccc5c(c4)C(=O)N(C4CCC(=O)NC4=O)C5=O)CC3)cc2)C1 (stereo partly drawn) [Compound 25]
1 to 30 nM | CN1C[C@H](Nc2cnn(C)c(=O)c2Br)C[C@H](c2ccc(C(=O)NCCCCCCCCOc3cccc4c3C(=O)N(C3CCC(=O)NC3=O)C4=O)cc2)C1 (stereo partly drawn) [Compound 42]
1 to 30 nM | CN1C[C@H](Nc2cnn(C)c(=O)c2Br)C[C@H](c2ccc(C(=O)N(C)c3ccc(CCCOc4cccc5c4C(=O)N(C4CCC(=O)NC4=O)C5=O)cc3)cc2)C1 (stereo partly drawn) [Compound 2]
< 1 nM | CN1C[C@H](Nc2cnn(C)c(=O)c2Br)C[C@H](c2ccc(C(=O)N3CCC(C#CCOc4ccc5c(c4)C(=O)N(C4CCC(=O)NC4=O)C5=O)CC3)cc2)C1 (stereo partly drawn) [Compound 54]
< 1 nM | CN1C[C@H](Nc2cnn(C)c(=O)c2Br)C[C@H](c2ccc(C(=O)N3CCC4(CCN(c5ccc(C6CCC(=O)NC6=O)cc5)C4)C3)cc2)C1 (stereo partly drawn) [Compound 82]
< 1 nM | CN1C[C@H](Nc2cnn(C)c(=O)c2Br)C[C@H](c2ccc(CN3CC(Oc4ccc5c(c4)C(=O)N(C4CCC(=O)NC4=O)C5=O)C3)cc2)C1 (stereo partly drawn) [Compound 95]

Source: patent US20260306640A1, “TECHNOLOGIES TARGETING CELL STATES” (Auron Therapeutics, Inc., priority 2023, published 2026)
